In PMC6917776, “Discovery of a chemical probe for PRDM9” (Nature Communications, 2019):
“And” between values parts separate entries of the source, which are not always exact repeats. Equal entries are not always repeated.

Tested on: H3K4me3 at known PRDM9 binding loci and control TSS loci
Experiment: ChIP-qPCR of H3K4me3 in PRDM9-transfected HEK293T cells
Type: cell-based, human
Conditions: Antibody H3K4me3; for 2^-dCq / dCq (IP-Input) / Cq: Figure 7 Replicate 2; for 2^-dCq (H3K4me3 IP relative to H3 IP): ChIP-qPCR Replicate 1; for Cq: ChIP-qPCR single well; for 2^-dCq (H3K4me3 ChIP relative to H3 ChIP): Replicate 1
Method: ChIP-qPCR assays were then conducted on known PRDM9 binding loci[26]. Ectopic expression of PRDM9^WT increased trimethylation of H3K4 (H3K4me3) at previously described PRDM9-specific intragenic and intergenic regions[26] (Fig. 7; Supplementary Fig. 12). […] The observed increases in H3K4me3 levels at intragenic and intergenic regions are therefore due directly to PRDM9 PR domain-dependent methylation activity, rather than through recruitment of other H3K4 methyltransferases or other indirect mechanisms.
ChIP qPCR analyses of H3K4me3 methylation levels of known PRDM9-bound loci and control loci. […] Concentrations used (µM) are indicated below each plot. (a–d) represent reported loci of PRDM9 methylation; (e, f) are transcriptional start sites (TSSs) which are not known loci of PRDM9 methylation. Data are normalized to total H3 and are presented as the mean ± upper and lower limits from two replicates. Representative plots of two independent experiments are shown in this figure. The coordinates and the genomic features associated with the assayed loci are indicated above each plot. Left Tailed Student's t-tests were performed by comparing DMSO (0 µM) treated cells to compound treated cells that have been transfected with the same plasmids. *p-value < 0.05 and **p-value < 0.01. Note that here we show a representative of two independent experiments (mean ± s.d of technical replicates) for our ChIP-qPCR experiments. Data obtained using this technique are inherently noisy due to stochastic differences in gene activity/histone positioning. Data are thus typically presented as representative rather than averaged. Source data are provided as a Source Data file.
HEK293T cells were transfected with 37.5 μg empty pcDNA3.1(+) vector (Invitrogen), or the same vector expressing either wild-type PRDM9 (PRDM9^WT) or a catalytically dead PRDM9 mutant (PRDM9^Mut) and 75 μL of Lipofectamine 2000 (Invitrogen) in 6 mL of Opti-MEM (GIBCO) for 48 h. […] ChIP assays were then performed as previously described. Briefly, cells were fixed in 1% formaldehyde and the fixation reaction was quenched in a final concentration of 0.1 M glycine. Cell pellets were first lysed in LB1 (50 mM HEPES-KOH pH 7.5, 140 mM NaCl, 1 mM EDTA, 10% Glycerol, 0.5% Igepal, 0.25% TritonX), washed once in LB2 Buffer (10 mM Tris-HCl pH 8, 200 mM NaCl, 1 mM EDTA, 0.5 mM EGTA) and finally sonicated in LB3 buffer (10 mM Tris-HCl pH 8, 100 mM NaCl, 1 mM EDTA, 0.5 mM EGTA, 0.1% Sodium deoxycholate, 0.5% N-laurosylsarcosine) using a bioruptor (Diagenode). Thereafter, 50 μg of chromatin was subjected to ChIP using the following antibodies purchased from Abcam: α-H3K4me3 (1:200, ab8580, lot:GR3207339-1) and α-H3 (1:250, ab1791, lot:GR300978-4). After extensive washing in RIPA wash buffer (50 mM HEPES-KOH pH 7.6, 100 mM LiCl, 1 mM EDTA, 1% Igepal, 0.7% Sodium Deoxycholate), DNA was eluted from beads. The eluted DNA was treated with RNase A and Proteinase K and purified using the QIAGEN PCR purification kit. qPCR was then carried out targeting the indicated loci (Supplementary Table 3). Upper and lower limits were defined by |2^−(dCq±s) − 2^−(∆Cq)|, where s = √((Standard deviation of Input Cq)^2 + (Standard deviation of Target Cq)^2). […]
formation. ChIP qPCR analyses of H3K4me3 methylation levels at known PRDM9-bound and control loci. Cells transfected with empty vector (negative control) or vectors overexpressing either wild-type PRDM9 (PRDM9 WT) or catalytically dead PRDM9 (PRDM9 MUT) were […]
Panels a-d represent reported loci of […]
(1 picture or pasted object on this page, not shown here)
PRDM9 methylation; e-f are TSSs which are not known sites of PRDM9 methylation. Data are normalized to total H3 and are presented as the mean ± upper and lower limits from two […]

[1] = Plasmid PRDM9WT, Drug Conc. 2.5

SMILES: COc1cc(OC)cc(-c2noc(N3CCN(C)C4(CCN(c5ccnc(C)c5)CC4)C3)n2)c1 [MRK-740]
- 2^-dCq [1]: 68.6717
- dCq (IP-Input) [1]: -6.102
- 2^-dCq (Plasmid PRDM9WT, Drug Conc. 5): 143.684
- dCq (IP-Input) (Plasmid PRDM9WT, Drug Conc. 5): -7.167
- 2^-dCq (Plasmid PRDM9WT, Drug Conc. 10): 36.5414
- dCq (IP-Input) (Plasmid PRDM9WT, Drug Conc. 10): -5.191
- 2^-dCq (H3K4me3 IP relative to H3 IP) (Figure 7 E chr12:6643945-6644023 TSS (GAPDH), Plasmid Empty Vector, Drug Conc. 2.5): 42.6349
- 2^-dCq (H3K4me3 IP relative to H3 IP) (Figure 7 E chr12:6643945-6644023 TSS (GAPDH), Plasmid Empty Vector, Drug Conc. 5): 95.4581
- 2^-dCq (H3K4me3 IP relative to H3 IP) (Figure 7 E chr12:6643945-6644023 TSS (GAPDH), Plasmid Empty Vector, Drug Conc. 10): 117.266
- 2^-dCq (H3K4me3 IP relative to H3 IP) (Figure 7 E chr12:6643945-6644023 TSS (GAPDH), Plasmid PRDM9WT, Drug Conc. 2.5): 25.3027
- 2^-dCq (H3K4me3 IP relative to H3 IP) (Figure 7 E chr12:6643945-6644023 TSS (GAPDH), Plasmid PRDM9WT, Drug Conc. 5): 32.9385
- 2^-dCq (H3K4me3 IP relative to H3 IP) (Figure 7 E chr12:6643945-6644023 TSS (GAPDH), Plasmid PRDM9WT, Drug Conc. 10): 45.6823
- 2^-dCq (H3K4me3 IP relative to H3 IP) (Figure 7 F chr19:8510167-8510261 TSS (HNRNPM), Plasmid Empty Vector, Drug Conc. 2.5): 71.0331
- 2^-dCq (H3K4me3 IP relative to H3 IP) (Figure 7 F chr19:8510167-8510261 TSS (HNRNPM), Plasmid Empty Vector, Drug Conc. 5): 77.1794
- 2^-dCq (H3K4me3 IP relative to H3 IP) (Figure 7 F chr19:8510167-8510261 TSS (HNRNPM), Plasmid Empty Vector, Drug Conc. 10): 127.571
- 2^-dCq (H3K4me3 IP relative to H3 IP) (Figure 7 F chr19:8510167-8510261 TSS (HNRNPM), Plasmid PRDM9WT, Drug Conc. 2.5): 23.4419
- 2^-dCq (H3K4me3 IP relative to H3 IP) (Figure 7 F chr19:8510167-8510261 TSS (HNRNPM), Plasmid PRDM9WT, Drug Conc. 5): 34.0456
- 2^-dCq (H3K4me3 IP relative to H3 IP) (Figure 7 F chr19:8510167-8510261 TSS (HNRNPM), Plasmid PRDM9WT, Drug Conc. 10): 45.2017
- Cq [1]: 20.9173
- Cq (Plasmid PRDM9WT, Drug Conc. 5): 20.8427 and 20.8648
- Cq (Plasmid PRDM9WT, Drug Conc. 10): 21.3604 and 21.0972
- 2^-dCq (H3K4me3 ChIP relative to H3 ChIP) (Figure 7 A, chr2:128811847-128811944 (Intergenic), Plasmid Empty Vector, Drug Conc. 2.5): 0.4418
- 2^-dCq (H3K4me3 ChIP relative to H3 ChIP) (Figure 7 A, chr2:128811847-128811944 (Intergenic), Plasmid Empty Vector, Drug Conc. 5): 0.3019
- 2^-dCq (H3K4me3 ChIP relative to H3 ChIP) (Figure 7 A, chr2:128811847-128811944 (Intergenic), Plasmid Empty Vector, Drug Conc. 10): 0.3892
- 2^-dCq (H3K4me3 ChIP relative to H3 ChIP) (Figure 7 A, chr2:128811847-128811944 (Intergenic), Plasmid PRDM9WT, Drug Conc. 2.5): 1.223
- 2^-dCq (H3K4me3 ChIP relative to H3 ChIP) (Figure 7 A, chr2:128811847-128811944 (Intergenic), Plasmid PRDM9WT, Drug Conc. 5): 0.9838
- 2^-dCq (H3K4me3 ChIP relative to H3 ChIP) (Figure 7 A, chr2:128811847-128811944 (Intergenic), Plasmid PRDM9WT, Drug Conc. 10): 1.179
- 2^-dCq (H3K4me3 ChIP relative to H3 ChIP) (Figure 7 B, chr8:49932778-49932856 (Intergenic), Plasmid Empty Vector, Drug Conc. 2.5): 0.3289
- 2^-dCq (H3K4me3 ChIP relative to H3 ChIP) (Figure 7 B, chr8:49932778-49932856 (Intergenic), Plasmid Empty Vector, Drug Conc. 5): 0.2554
- 2^-dCq (H3K4me3 ChIP relative to H3 ChIP) (Figure 7 B, chr8:49932778-49932856 (Intergenic), Plasmid Empty Vector, Drug Conc. 10): 0.5965
- 2^-dCq (H3K4me3 ChIP relative to H3 ChIP) (Figure 7 B, chr8:49932778-49932856 (Intergenic), Plasmid PRDM9WT, Drug Conc. 2.5): 4.659
- 2^-dCq (H3K4me3 ChIP relative to H3 ChIP) (Figure 7 B, chr8:49932778-49932856 (Intergenic), Plasmid PRDM9WT, Drug Conc. 5): 2.677
- 2^-dCq (H3K4me3 ChIP relative to H3 ChIP) (Figure 7 B, chr8:49932778-49932856 (Intergenic), Plasmid PRDM9WT, Drug Conc. 10): 2.675
